Assays:
[1] = test system: Haemophilus influenzae; assay: Pilot test of bactericidal effect, bacteria in media; format: cell-based; details: bacteria suspended in media incubated for one hour with ACY-1083, pilot experiment
[2] = Secondary pharmacology panel of >190 in vitro radioligand binding and enzyme assays; details: hits: HDAC5, HDAC7, COX2 and DAT
Description: Second pharmacology screening was performed at Eurofins Pharma Discovery Services in a panel of 190 in vitro radioligand binding and enzyme assays covering a diverse set of enzymes, receptors, ion channels, and transporters.

[3] = test system: COPD HBEC ALI cultures; assay: Whole cigarette smoke (WCS) challenge in ALI, FITC-dextran permeability; format: cell-based, human; details: 10 μM started after first smoke exposure, 4 exposures in 2 days, all concentrations except the highest (1, 0.5 and 0.2 l/min dilution), one COPD donor, exploratory
Description: The paracellular permeability was determined by using fluorescein isothiocyanate labeled 4kD-dextran (Sigma-Aldrich, St. Louis, USA). 18 hours after addition of 0.2 mg FITC-dextran in 200 μL medium to the apical side of the ALI cultures, the fluorescence in the basolateral medium was measured using PHERAstar FSX (excitation 485 nm and emission 520 nm) (BMG LABTECH, Ortenberg, Germany). The time point was chosen for optimal window in the assays as well as practical reasons and has been kept consistent in between different stimulations throughout this work. Data was plotted as fold-change of 0.1% DMSO control.
Whole cigarette smoke (WCS) experiments were performed using the Smoking Robot VC 10® S-TYPE (Vitrocell, Waldkirch, Germany). The Vitrocell smoke robot delivers either WCS or humidified air to the apical surface of the cell layers. Briefly, inserts with fully differentiated HBEC in ALI from one COPD donor were placed in the Vitrocell smoke chamber filled with DMEM medium (Thermo Fisher Scientific) and CS or humidified air was puffed onto the apical surface. ISO Puff Standard was used with each CS exposure consisting of two 3R4F Kentucky research cigarettes (one 35 ml puff every 60 seconds). Cells were exposed to WCS four times during two days with a minimum of two hours elapsed between smoke exposures. […] Permeability was measured 20 hours after the last smoke session.

[4] = test system: COPD HBEC ALI cultures; assay: Cytokine release in basolateral supernatants (MSD), TNF challenge; format: cell-based, human; details: 10 μM, TNF 5, 20 and 50 ng/ml, day seven
Description: TEER and permeability were measured after seven days.
To assess cytokines released, basolateral supernatants were collected on day seven and immediately frozen at -80°C until MSD analysis of IL-6, CCL2 and CXCL10. In short, U-PLEX MSD plates (Mesoscale Discovery, Rockville, Maryland, USA) were coated, washed and stored overnight. Standard curves were prepared and added in duplicates on each plate. Supernatants were thawed on ice and added to the plates, which were incubated on an orbital shaker for one hour before sulfo-tagged antibodies were added and incubated for another hour. Plates were washed, read buffer added and read on MESO SECTOR S 600 (Mesoscale Discovery, Rockville, Maryland, USA). Data was plotted as fold change to DMSO control.

[5] = test system: COPD HBEC ALI cultures; assay: TNF challenge model in ALI, TEER and FITC-dextran permeability; format: cell-based, human; details: 10 μM, four COPD donors
[6] = target: T1, HDAC9 (Homo sapiens, UniProt Q9UKV0); assay: HDAC enzymatic activity (Eurofins); format: biochemical; details: Class IIA; ACY-1083 mean of two separate measurements, Ricolinostat and Tubastatin A one measurement
T1 construct: purchased Eurofins Pharma Discovery Services 2611

[7] = target: T2, HDAC11 (Homo sapiens, UniProt Q96DB2); assay: HDAC enzymatic activity (Eurofins); format: biochemical; details: Class IV; ACY-1083 mean of two separate measurements, Ricolinostat and Tubastatin A one measurement
T2 construct: purchased Eurofins Pharma Discovery Services 2663
T2 sequence (Q96DB2 1-347): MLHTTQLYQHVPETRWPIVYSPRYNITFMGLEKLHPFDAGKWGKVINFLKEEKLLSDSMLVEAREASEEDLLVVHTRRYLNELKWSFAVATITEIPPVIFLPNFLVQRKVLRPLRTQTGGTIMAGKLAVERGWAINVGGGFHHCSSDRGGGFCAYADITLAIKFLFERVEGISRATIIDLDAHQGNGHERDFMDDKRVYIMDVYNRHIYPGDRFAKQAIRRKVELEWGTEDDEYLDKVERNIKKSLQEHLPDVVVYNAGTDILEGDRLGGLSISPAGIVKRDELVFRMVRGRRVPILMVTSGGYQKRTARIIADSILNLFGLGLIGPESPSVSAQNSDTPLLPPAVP

[8] = target: T3, HDAC7 (Homo sapiens, UniProt Q8WUI4); assay: HDAC enzymatic activity (Eurofins); format: biochemical; details: Class IIA; ACY-1083 mean of two separate measurements, Ricolinostat and Tubastatin A one measurement
T3 construct: purchased Eurofins Pharma Discovery Services 2610
T3 sequence (Q8WUI4 1-952): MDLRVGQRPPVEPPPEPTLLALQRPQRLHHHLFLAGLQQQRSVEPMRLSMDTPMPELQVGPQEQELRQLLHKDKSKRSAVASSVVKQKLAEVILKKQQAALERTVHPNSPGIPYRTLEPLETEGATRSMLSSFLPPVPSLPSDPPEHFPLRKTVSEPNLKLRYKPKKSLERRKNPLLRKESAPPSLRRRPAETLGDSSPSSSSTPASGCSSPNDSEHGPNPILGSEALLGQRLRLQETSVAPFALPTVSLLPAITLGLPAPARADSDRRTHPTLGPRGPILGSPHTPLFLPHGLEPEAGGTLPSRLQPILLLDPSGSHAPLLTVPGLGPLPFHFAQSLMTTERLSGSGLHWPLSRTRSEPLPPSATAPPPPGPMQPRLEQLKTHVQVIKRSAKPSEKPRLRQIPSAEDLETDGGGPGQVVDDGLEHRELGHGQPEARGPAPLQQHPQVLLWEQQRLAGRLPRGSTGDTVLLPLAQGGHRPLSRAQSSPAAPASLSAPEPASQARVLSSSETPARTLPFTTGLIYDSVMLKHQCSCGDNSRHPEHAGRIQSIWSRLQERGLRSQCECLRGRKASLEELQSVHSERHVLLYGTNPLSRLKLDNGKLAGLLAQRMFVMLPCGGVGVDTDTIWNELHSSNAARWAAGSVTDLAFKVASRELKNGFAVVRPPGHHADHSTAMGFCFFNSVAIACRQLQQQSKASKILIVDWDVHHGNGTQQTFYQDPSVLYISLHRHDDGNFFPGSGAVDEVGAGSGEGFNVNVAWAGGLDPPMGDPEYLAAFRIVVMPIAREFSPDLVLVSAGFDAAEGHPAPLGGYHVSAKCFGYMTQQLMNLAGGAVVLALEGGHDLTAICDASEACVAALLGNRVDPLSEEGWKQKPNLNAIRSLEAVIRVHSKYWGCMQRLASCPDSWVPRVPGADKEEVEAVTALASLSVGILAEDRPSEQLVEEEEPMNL

[9] = test system: healthy HBEC at ALI cultures; assay: Cell velocity (Particle Image Velocimetry); format: cell-based, human; details: TNF-challenged healthy HBEC, brought down to unchallenged levels, 0.0411
From the text: For cilia beating frequency (CBF) and cell velocity measurements, donor cells of primary healthy HBECs were amplified on rat tail collagen I coated flasks and seeded on 12-mm-diameter Transwell inserts.
Cell migration was quantified by performing Particle Image Velocimetry (PIVlab) on Matlab using multi-pass cross-correlation analysis with decreasing interrogation window size on image pairs to obtain the spatial velocity field as described previously.

T1 sequence (Q9UKV0 whole entry): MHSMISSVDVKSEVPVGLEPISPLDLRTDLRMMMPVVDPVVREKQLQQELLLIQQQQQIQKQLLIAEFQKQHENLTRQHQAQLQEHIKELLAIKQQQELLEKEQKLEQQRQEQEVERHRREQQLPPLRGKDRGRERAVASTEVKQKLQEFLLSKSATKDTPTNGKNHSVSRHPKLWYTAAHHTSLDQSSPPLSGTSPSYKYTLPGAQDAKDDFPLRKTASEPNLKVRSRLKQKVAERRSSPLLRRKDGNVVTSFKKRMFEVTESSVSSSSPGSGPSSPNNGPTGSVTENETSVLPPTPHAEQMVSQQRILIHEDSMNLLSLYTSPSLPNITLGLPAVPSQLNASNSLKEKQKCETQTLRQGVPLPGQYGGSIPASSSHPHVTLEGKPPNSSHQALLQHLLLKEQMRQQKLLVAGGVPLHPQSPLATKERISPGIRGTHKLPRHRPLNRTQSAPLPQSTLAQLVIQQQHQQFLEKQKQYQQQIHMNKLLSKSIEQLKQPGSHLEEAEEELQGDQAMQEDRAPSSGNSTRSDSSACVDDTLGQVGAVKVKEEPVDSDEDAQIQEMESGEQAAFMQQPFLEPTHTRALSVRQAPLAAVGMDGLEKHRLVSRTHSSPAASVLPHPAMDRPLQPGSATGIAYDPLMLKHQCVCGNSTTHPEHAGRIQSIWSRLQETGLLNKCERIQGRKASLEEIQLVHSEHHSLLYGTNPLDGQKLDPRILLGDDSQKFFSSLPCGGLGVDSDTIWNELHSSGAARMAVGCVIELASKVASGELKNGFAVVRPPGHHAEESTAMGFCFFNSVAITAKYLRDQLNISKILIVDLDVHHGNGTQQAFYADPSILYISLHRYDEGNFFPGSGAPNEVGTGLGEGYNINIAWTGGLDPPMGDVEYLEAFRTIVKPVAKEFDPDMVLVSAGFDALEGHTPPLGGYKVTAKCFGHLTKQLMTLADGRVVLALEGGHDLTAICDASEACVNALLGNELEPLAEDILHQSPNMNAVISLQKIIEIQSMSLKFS

## ACY-1083
[1]
  bactericidal effect (bacterial counts): no effect on bacterial counts
[2]
  hits below 10 μM in HDAC isoform panel and secondary pharmacology safety panels: 4
[3]
  paracellular permeability after WCS challenge: decrease permeability
[4]
  CCL2 protein induction in basolateral supernatant: reduced
  CXCL10 protein induction in basolateral supernatant: reduced
  IL-6 protein induction in basolateral supernatant: reduced
[5]; TNF 0, 5, 20 and 50 ng/mL, after seven days
  TEER vs DMSO control: higher TEER at all concentrations of TNF
[5]; TNF 5, 20 and 50 ng/mL
  paracellular permeability vs DMSO control: lower permeability at 5, 20 and 50 ng/mL TNF
[6]
  IC50: 19.3 µM
[7]
  IC50: 18.2 µM
[8]
  IC50: 6.51 µM
[9]
  cellular velocity: counteract this increase

Source: paper PMC9555642 (PLoS ONE, 2022)
